ChEMBL document CHEMBL4418498, “Halogenated benzotropolones as atg4b inhibitors” (2018)

What was measured:
[1] = Metabolic stability in mouse liver microsomes assessed as parent compound recovery after 30 mins in presence of NADPH regenerating system by LC-MS/MS analysis; assay type: ADME, Microsome; details: read-out: Drug recovery
[2] = biological target: T1, Cysteine protease ATG4B (Homo sapiens) (UniProt Q9Y4P1); assay: Inhibition of Atg4B in human Jurkat T-cells assessed as reduction in everolimus-induced autophagy at […] incubated for 16 hrs by CYTO-ID-based phenotypical screening assay relative to control everolimus alone (reference value: 1 No unit); assay type: cell-based
T1 sequence (whole entry): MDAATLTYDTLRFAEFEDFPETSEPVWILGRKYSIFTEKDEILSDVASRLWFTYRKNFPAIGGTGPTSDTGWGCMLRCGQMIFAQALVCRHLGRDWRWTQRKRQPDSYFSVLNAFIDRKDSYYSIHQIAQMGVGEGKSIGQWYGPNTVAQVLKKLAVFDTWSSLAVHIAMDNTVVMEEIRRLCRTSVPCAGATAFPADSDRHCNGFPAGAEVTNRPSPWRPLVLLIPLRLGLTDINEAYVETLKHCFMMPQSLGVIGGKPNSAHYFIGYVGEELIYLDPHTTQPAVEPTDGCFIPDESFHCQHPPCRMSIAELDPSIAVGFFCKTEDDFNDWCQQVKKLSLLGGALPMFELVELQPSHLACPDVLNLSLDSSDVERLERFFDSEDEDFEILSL

Row | remaining at 0.5 h [1] | Ratio [2] | SMILES
1 | 100% |  | O=C(O)c1cc(O)c(=O)c2c(O)c(O)c(Br)cc2c1
2 |  | 0.57 | Cn1cnc(N)c2ncnc1-2
